Measurements published in publication PMC5681922, “Systemic Responses of Multidrug-Resistant Pseudomonas aeruginosa and Acinetobacter baumannii Following Exposure to the Antimicrobial Peptide Cathelicidin-BF Imply Multiple Intracellular Targets” (Frontiers in Cellular and Infection Microbiology, 2017).
No end group written: not given here.

System: P. aeruginosa 1409
Test: Minimal inhibitory concentration (given as multiples of MIC)
Assay type: cell-based, Pseudomonas aeruginosa
Conditions: MDR clinical isolate; MIC itself not given, only this multiple

For “KFFRKLKKSVKKRAKEFFKKPRVIGVSIPF [cathelicidin-BF]”, the “4 × MIC” value was 32 µg/mL.
